Measurements published in patent publication US8993247B2, “Assay for vascular calcification” (King's College London, priority 2010, dated 2015).

Columns and labels:
[1] = test system: VSMCs
Description: A—apoptosis of VSMCs in the presence of GW4869 as detected by AnnexinV-FITC binding VSMC were treated with 5 mM GW4869 in the absence or presence of high Ca/P and the level of apoptosis was determined by phospahtidylserine externalization.
VSMCs were cultured in the presence or absence of GW4869 and with or without high Ca and P in the media containing 2% serum for 5 days.
We therefore compared an effect of GW4869 on cell survival in the presence of raised extracellular concentrations of Ca and P in the media containing 2% serum.

[2] = test system: human smooth muscle cells; assay: Matrix vesicle release by VSMCs (western blot of CD63 and Fetuin A in MV lysates, CD63 densitometry); format: cell-based; settings: matrix vesicle markers CD63 and Fetuin A in MV lysates, n=3
Description: Panel B, quantification of matrix vesicle release by VSMCs was performed using densitometry analysis of CD63, presented in MV as defined by western-blot analysis (shown in A). Mean±SD, n=3.

[3] = test system: human smooth muscle cells; format: cell-based
Description: A—VSMCs were incubated in the absence or presence of high Ca/P (2.5 mM Ca and 2.5 mM P) in 2% FBS/M199 media for 5 days and subjected to alizarin D staining Quantification shown graphically in B. Mean±SD, n=3. C—pictures of VSMCs were taken using light microscopy of alizarin-D stained VSMCs. 1.5—BSA control; 2.6−+5 mM GW4869; 3.7−+1.3% DSMO; 4.8−+1 uM Y-27632.

Cl.Cl.O=C(/C=C/c1ccc(/C=C/C(=O)Nc2ccc(C3=NCCN3)cc2)cc1)Nc1ccc(C2=NCCN2)cc1 [GW4869]
apoptosis of GW4869-treated VSMCs with high Ca and P compared with without [1]: not increased
matrix vesicles release by human smooth muscle cells [2]: inhibition of matrix vesicles release
number of VSMCs in wells [3]: dramatic reduction in the number of VSMCs

C[C@@H](N)[C@H]1CC[C@H](C(=O)Nc2ccncc2)CC1 [Y 27632]
calcification of VSMCs ([3]; high Ca/P (2.5 mM Ca and 2.5 mM P), media with 2% serum, 5 days, 5 mM GW4869, 1 uM Y-27632): had no effect
